According to patent US20250314638A1, “OBLIQUE LINE SCANNER SYSTEMS AND METHODS FOR HIGH THROUGHPUT SINGLE MOLECULE TRACKING IN LIVING CELLS” (EIKON THERAPEUTICS, INC., priority 2022, published 2025):

System: Halo-PCNA U2OS cells
Assay: Cell cycle block validated by machine-learning cell cycle phase assignment in Halo-PCNA cells
Type: cell-based
Conditions: 2 mM Thymidine (S-phase block) or (G2-M block)
Description: Time-lapse microscopy was conducted on Halo-PCNA labeled with 50 nM JFX650, to achieve near-saturating labeling, for 12 hours at 12 frames per hour (FIG. 21A). A machine learning model was then trained using both manually assigned cell stages and time-based progression resulting in both a G1, early S, mid S, late S, G2 and mitosis classifier as well as a regression prediction across the continuum of the cell cycle (FIG. 21B). The predicted cell cycle classification performed well as compared to manual annotation (FIG. 21C). Clear progression of individual cells through the cell cycle was observed when regression prediction was plotted across the time series (FIG. 21D). […] When cells in each cell phase were analyzed separately, it became apparent that the slow-moving population of PCNA was exclusively found in cell predicted to be in S-phase and that there was a marked decrease in the fast-moving population (FIG. 20E). Mean diffusion coefficient of PCNA was then measured for 4,081 individual cells to characterize heterogeneity across the cell population, which is described in large part by cell cycle (FIG. 20F).
Cell cycle as provided above can be automatically determined using an image (e.g., an image of JF549-labeled PCNA). […]

Compound: O=C1NC(=NCc2cccs2)S/C1=C\c1ccc2ncccc2c1 [RO-3306]
- fraction of cells assigned to cell cycle phases: expected enrichment in the fraction of cells assigned to the respective cell phases

Compound: Cc1cn([C@H]2C[C@H](O)[C@@H](CO)O2)c(=O)[nH]c1=O [thymidine]
- fraction of cells assigned to cell cycle phases: expected enrichment in the fraction of cells assigned to the respective cell phases
